Test results as given in PMC11864979, “First-in-class ultralong-target-residence-time p38α inhibitors as a mitosis-targeted therapy for colorectal cancer” (Nature Cancer, 2025).
Read-outs that look alike come from different tables or passages of the source.

Experiments:
Assay in all cases: selectivity profiling in a panel of 340 wild-type kinases (Reaction Biology Europe)
Format in all cases: binding
340 wild-type kinases [1] = molecular target: T1, 340 wild-type kinases (Homo sapiens, UniProt P29322)
T1 construct: purchased Reaction Biology Europe
T1 sequence (P29322 28-1005): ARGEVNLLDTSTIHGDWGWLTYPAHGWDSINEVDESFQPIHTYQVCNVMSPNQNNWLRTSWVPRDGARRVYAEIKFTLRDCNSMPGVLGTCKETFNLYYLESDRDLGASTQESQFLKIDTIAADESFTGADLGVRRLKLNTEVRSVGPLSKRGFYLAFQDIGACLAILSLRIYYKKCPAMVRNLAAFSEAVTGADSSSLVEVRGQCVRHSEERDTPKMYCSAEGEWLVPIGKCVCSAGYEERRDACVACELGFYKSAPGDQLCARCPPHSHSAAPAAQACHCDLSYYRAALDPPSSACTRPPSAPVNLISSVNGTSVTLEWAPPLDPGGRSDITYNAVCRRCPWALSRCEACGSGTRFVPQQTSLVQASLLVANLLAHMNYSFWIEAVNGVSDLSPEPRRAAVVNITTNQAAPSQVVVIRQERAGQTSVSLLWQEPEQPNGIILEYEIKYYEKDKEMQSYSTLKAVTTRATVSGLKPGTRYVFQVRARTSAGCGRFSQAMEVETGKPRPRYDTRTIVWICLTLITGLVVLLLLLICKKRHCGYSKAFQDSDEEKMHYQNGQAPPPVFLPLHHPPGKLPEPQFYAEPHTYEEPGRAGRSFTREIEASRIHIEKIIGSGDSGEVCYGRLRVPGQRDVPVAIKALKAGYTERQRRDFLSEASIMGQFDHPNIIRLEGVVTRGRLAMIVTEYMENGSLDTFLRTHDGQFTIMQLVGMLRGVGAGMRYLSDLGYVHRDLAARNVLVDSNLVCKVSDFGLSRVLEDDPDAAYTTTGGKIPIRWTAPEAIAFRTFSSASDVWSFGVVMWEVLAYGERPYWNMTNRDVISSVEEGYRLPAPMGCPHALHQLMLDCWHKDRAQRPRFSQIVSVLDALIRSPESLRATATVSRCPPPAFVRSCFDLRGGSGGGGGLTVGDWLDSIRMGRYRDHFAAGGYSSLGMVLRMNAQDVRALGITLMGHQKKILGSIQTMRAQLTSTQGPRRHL

340 wild-type kinases [2] = molecular target: T2, 340 wild-type kinases (Homo sapiens, UniProt O94806)
T2 construct: purchased Reaction Biology Europe
T2 sequence (O94806 1-890): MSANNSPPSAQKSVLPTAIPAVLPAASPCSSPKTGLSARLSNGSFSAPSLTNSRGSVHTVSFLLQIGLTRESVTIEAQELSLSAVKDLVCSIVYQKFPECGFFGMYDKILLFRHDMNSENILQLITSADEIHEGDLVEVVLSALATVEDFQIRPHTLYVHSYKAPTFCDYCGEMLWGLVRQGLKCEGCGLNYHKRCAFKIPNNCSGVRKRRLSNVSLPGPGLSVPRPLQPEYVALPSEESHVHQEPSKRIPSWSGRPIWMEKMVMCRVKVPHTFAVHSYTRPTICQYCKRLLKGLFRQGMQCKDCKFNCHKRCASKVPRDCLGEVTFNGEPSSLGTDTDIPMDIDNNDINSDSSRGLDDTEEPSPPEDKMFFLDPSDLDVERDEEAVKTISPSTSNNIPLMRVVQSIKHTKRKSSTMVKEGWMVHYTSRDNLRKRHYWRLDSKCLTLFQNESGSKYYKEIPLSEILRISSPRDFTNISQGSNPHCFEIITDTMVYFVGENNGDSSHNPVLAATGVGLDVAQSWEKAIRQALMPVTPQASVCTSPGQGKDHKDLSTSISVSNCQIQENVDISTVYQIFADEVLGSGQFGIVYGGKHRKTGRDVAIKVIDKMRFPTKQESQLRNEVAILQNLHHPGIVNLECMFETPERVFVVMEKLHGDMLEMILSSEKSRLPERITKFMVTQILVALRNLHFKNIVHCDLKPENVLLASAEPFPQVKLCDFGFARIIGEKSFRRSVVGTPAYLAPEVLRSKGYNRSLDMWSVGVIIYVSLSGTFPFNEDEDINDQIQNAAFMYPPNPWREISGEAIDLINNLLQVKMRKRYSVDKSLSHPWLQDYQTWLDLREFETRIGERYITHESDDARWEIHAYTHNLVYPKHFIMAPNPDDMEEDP

340 wild-type kinases [3] = molecular target: T3, 340 wild-type kinases (Homo sapiens, UniProt P68400)
T3 construct: purchased Reaction Biology Europe
T3 sequence (P68400 whole entry): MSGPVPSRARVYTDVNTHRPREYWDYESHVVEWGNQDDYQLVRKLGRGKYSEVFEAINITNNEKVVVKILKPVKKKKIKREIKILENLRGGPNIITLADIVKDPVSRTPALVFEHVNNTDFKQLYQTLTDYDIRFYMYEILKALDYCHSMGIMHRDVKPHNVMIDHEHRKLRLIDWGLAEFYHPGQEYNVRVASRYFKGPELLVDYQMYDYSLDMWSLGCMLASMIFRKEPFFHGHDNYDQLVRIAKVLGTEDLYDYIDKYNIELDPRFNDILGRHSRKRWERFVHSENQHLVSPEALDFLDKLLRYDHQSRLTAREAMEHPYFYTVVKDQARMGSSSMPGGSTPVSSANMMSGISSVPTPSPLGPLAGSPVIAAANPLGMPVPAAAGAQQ

340 wild-type kinases [4] = molecular target: T4, 340 wild-type kinases (Homo sapiens, UniProt Q8IWQ3)
T4 construct: purchased Reaction Biology Europe
T4 sequence (Q8IWQ3 1-736): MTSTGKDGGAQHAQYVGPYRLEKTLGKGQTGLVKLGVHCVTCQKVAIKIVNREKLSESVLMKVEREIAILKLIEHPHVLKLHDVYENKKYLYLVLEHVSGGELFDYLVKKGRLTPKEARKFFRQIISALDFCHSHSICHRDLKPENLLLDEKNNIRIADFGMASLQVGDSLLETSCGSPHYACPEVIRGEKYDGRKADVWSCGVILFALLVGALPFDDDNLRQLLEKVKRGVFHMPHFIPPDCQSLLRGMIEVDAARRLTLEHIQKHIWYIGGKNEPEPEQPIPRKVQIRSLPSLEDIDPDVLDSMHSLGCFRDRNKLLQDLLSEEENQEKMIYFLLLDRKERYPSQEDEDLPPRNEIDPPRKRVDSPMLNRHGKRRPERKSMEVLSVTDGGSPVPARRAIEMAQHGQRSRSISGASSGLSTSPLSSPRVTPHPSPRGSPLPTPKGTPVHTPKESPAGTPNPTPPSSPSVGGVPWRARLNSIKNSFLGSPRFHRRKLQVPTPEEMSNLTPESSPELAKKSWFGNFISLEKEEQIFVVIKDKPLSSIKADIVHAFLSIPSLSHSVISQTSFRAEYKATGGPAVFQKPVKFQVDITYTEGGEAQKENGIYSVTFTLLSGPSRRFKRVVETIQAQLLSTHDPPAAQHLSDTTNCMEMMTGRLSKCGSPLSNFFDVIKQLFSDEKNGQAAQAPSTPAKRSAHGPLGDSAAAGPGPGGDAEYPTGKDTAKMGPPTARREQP

With `CNC(=O)c1ccc2c(c1)C(=O)c1ccc(Nc3ccc(F)c(NC(=O)C4CC4)c3)cc1CC2` [Compound 2015] the remaining activity at 0.2 µM (340 wild-type kinases [1]; 0.2 µM 2015, read-out: EPHA8 residual activity) was 98.5%, the remaining activity at 1 µM (340 wild-type kinases [1]; 1 µM 2015, read-out: EPHA8 residual activity) was 95.3% and the remaining activity at 0.2 µM (340 wild-type kinases [1]; EPHA8, 0.2 µM, read-out: residual activity) was 98.5%. It also gave a remaining activity at 1 µM (340 wild-type kinases [1]; EPHA8, 1 µM, read-out: residual activity) of 95.3%, a remaining activity at 0.2 µM (340 wild-type kinases [2]; 0.2 µM 2015, read-out: PKCnu residual activity) of 88.9% and a remaining activity at 1 µM (340 wild-type kinases [2]; 1 µM 2015, read-out: PKCnu residual activity) of 96.9%. The remaining activity at 0.2 µM (340 wild-type kinases [2]; PKCnu, 0.2 µM, read-out: residual activity) was 88.9%, the remaining activity at 1 µM (340 wild-type kinases [2]; PKCnu, 1 µM, read-out: residual activity) was 96.9% and the remaining activity at 0.2 µM (340 wild-type kinases [3]; 0.2 µM 2015, read-out: CK2alpha1 residual activity) was 98.8%. For the same compound, the remaining activity at 1 µM (340 wild-type kinases [3]; 1 µM 2015, read-out: CK2alpha1 residual activity) was 95.8%, the remaining activity at 0.2 µM (340 wild-type kinases [3]; CK2alpha1, 0.2 µM, read-out: residual activity) was 98.8% and the remaining activity at 1 µM (340 wild-type kinases [3]; CK2alpha1, 1 µM, read-out: residual activity) was 95.8%. The remaining activity at 0.2 µM (340 wild-type kinases [4]; 0.2 µM 2015, read-out: BRSK2 residual activity) was 103%, the remaining activity at 1 µM (340 wild-type kinases [4]; 1 µM 2015, read-out: BRSK2 residual activity) was 101% and the remaining activity at 0.2 µM (340 wild-type kinases [4]; BRSK2, 0.2 µM, read-out: residual activity) was 103%. It also gave a remaining activity at 1 µM (340 wild-type kinases [4]; BRSK2, 1 µM, read-out: residual activity) of 101%.
